Reference: article PMC9885530, “Identification of Natural Products Inhibiting SARS-CoV-2 by Targeting Viral Proteases: A Combined in Silico and in Vitro Approach” (Journal of Natural Products, 2023)
Where “and” joins values, the source holds several entries; their conditions need not be identical. Equal entries are not always repeated. Where two headings read alike, the source gives them in different places.

How the values were obtained:
[1] = Cytotoxicity in Calu-3 cells; details: human
SARS-CoV-2 [2] = test: Antiviral assay in Calu-3 cells (spike staining); type: cell-based
SARS-CoV-2 M^pro = SARS-CoV-2 M^pro (Severe acute respiratory syndrome coronavirus 2, UniProt P0DTD1); test: biochemical; type: biochemical; details: for inhibition at 20 µM: read-out: SARS-CoV-2 M^pro enzyme inhibition (%) 20 μM; for inhibition at 100 µM: 100 μM compound, read-out: SARS-CoV-2 M^pro enzyme inhibition (%) 100 μM
M^pro = M^pro (Severe acute respiratory syndrome coronavirus 2, UniProt P0DTD1); type: binding; details: 2 μM protein, 50 μM ligand
in vitro = details: human
SARS-CoV-2 PLpro [3] = target: T1, SARS-CoV-2 PLpro (Severe acute respiratory syndrome coronavirus 2, UniProt P0DTD1); test: PL^pro fluorogenic peptide cleavage assay (substrate Z-RLRGG-AMC); type: biochemical; set-up: papain-like protease (PL^pro; domain of nsp3); His; purchased BPS Biosciences BPS-100735-1; details: for inhibition at 20 µM: read-out: SARS-CoV-2 PL^pro enzyme inhibition (%) 20 μM; for inhibition at 100 µM: read-out: SARS-CoV-2 PL^pro enzyme inhibition (%) 100 μM
SARS-CoV-2 PLpro [4] = target: T1, SARS-CoV-2 PLpro; test: biochemical; set-up: papain-like protease (PL^pro; domain of nsp3); purchased Anaspec (Fremont, USA) AS-72263; details: for inhibition at 20 µM: read-out: SARS-CoV-2 PLpro inhibition % enzyme inhibition (20 µM); for SARS-CoV-2 PLpro inhibition % enzyme inhibition (20 µM): commercial Anaspec assay kit
[5] = Cytotoxicity in Caco-2 cells; details: human
SARS-CoV-2 [6] = test: Antiviral assay in Caco-2 cells; type: cell-based; details: Severe acute respiratory syndrome coronavirus 2, Caco-2, read-out: Anti SARS-CoV-2 activity Caco-2 IC50 (µM)
[7] = Severe acute respiratory syndrome coronavirus 2, Calu-3 cells, MOI 0.01, 48 h postinfection, read-out: Anti-SARS-CoV-2 activity IC50
[8] = 20 μM compound, buffer with 5 mM DTT, for values marked a the relative standard deviation of 6% applies
[9] = read-out: SARS-CoV-2 M^pro IC50, buffer with 5 mM DTT
[10] = Severe acute respiratory syndrome coronavirus 2, Calu-3, 48 h, read-out: Anti-SARS-CoV-2 activity IC50 (μM)

Row | Compound | inhibition at 20 µM (SARS-CoV-2 M^pro; [8]) | inhibition at 100 µM (SARS-CoV-2 M^pro; buffer with 5 mM DTT) | inhibition at 20 µM (SARS-CoV-2 PLpro [3]) | inhibition at 100 µM (SARS-CoV-2 PLpro [3]) | inhibition at 20 µM (SARS-CoV-2 PLpro [4]) | also measured
1 | CCC(CC)COC(=O)[C@H](C)N[P@](=O)(OC[C@H]1O[C@@](C#N)(c2ccc3c(N)ncnn23)[C@H](O)[C@@H]1O)Oc1ccccc1 [Compound 1, remdesivir, reference compound] |  |  |  |  |  | CC50 [1]: > 0.1 µM; IC50 (SARS-CoV-2 [2]; [7]): 0.00125 µM
2 | CC(C)=CCC/C(C)=C/Cc1c(O)ccc([C@@H]2CC(=O)c3c(O)cc(O)cc3O2)c1O [Compound 11, sanggenol A] | 31.9% | 98.3 ± 2.4% |  |  |  | 
3 | CC(C)=CCC12Oc3cc(O)c([C@@H]4C=C(C)C[C@H](c5ccc(O)cc5O)[C@H]4C(=O)c4ccc(O)cc4O)c(O)c3C(=O)C1(O)Oc1cc(O)ccc12 (some centres unmarked) [Compound 14, sanggenon D] |  |  |  |  |  | STD signals (M^pro): exhibited STD signals; IC50 (SARS-CoV-2 M^pro; SARS-CoV-2 M^pro IC50 (μM), buffer with 5 mM DTT): 13.8 µM and 13.9 µM; CC50 [1]: 46.2 µM; IC50 (SARS-CoV-2 [2]; [7]): 18.5 µM
4 | CC1=C[C@H](c2c(O)ccc([C@@H]3CC(=O)c4c(O)cc(O)cc4O3)c2O)[C@@H](C(=O)c2ccc(O)cc2O)[C@H](c2ccc(O)cc2O)C1 [Compound 16, kuwanon L] | 70.4% | 97.6 ± 2.5% |  |  |  | STD signals (M^pro): exhibited STD signals; IC50 (SARS-CoV-2 M^pro; read-out: SARS-CoV-2 M^pro IC50): 5.25 µM and 5.3 µM; CC50 [1]: 97.7 µM
5 | O=C(CCc1ccccc1)C[C@H]1C[C@H](c2ccccc2)c2c(cc(/C=C/c3ccccc3)oc2=O)O1 [Compound 17, katsumadain A] | 5% | 47.7 ± 2.8% |  |  |  | 
6 | O=C(/C=C/c1ccc(O)c(O)c1)O[C@@H](C(=O)O)[C@@H](OC(=O)/C=C/c1ccc(O)c(O)c1)C(=O)O [Compound 18, chicoric acid] | 0.7% | 11.5 ± 0.6% |  |  |  | 
7 | O=C(/C=C/c1ccc(O)c(O)c1)OC1CC(OC(=O)/C=C/c2ccc(O)c(O)c2)(C(=O)O)CC(O)C1O (centres unmarked) [Compound 19, cynarine] |  | 9.8 ± 13.3% |  |  |  | 
8 | CC(C)=CCc1cc(-c2coc3cc(O)ccc3c2=O)ccc1O [Compound 20, neobavaisoflavone] |  |  |  |  |  | inhibition at 20 µM (SARS-CoV-2 M^pro): 18%
9 | C=C(C)[C@H](CC=C(C)C)Cc1c(O)cc(OC)c2c1O[C@H](c1ccc(O)cc1O)CC2=O [Compound 21, kurarinone] | 30.2% | 99.2 ± 2.5% |  |  |  | 
10 | CC(C)=CCc1c(-c2ccc(O)c3c2OC(C)(C)C=C3)oc2cc(O)cc(O)c2c1=O [Compound 22, kuwanon A] | 45.5 ± 7.1% | 79.2 ± 2.4% |  |  |  | IC50 (SARS-CoV-2 M^pro; [9]): 35.2 µM; CC50 (in vitro): 47.7 µM; IC50 (SARS-CoV-2 [2]; [7]): 35.6 µM
11 | CC(C)=CCc1c(-c2ccc(O)cc2O)oc2c3c(cc(O)c2c1=O)OC(C)(C)C=C3 [Compound 23, morusin] |  |  |  |  |  | IC50 (SARS-CoV-2 M^pro; [9]): 33.5 µM; CC50 (in vitro): 25.2 µM; IC50 (SARS-CoV-2 [2]; [7]): 24.9 µM
12 | CC(C)(O)CCc1c(-c2ccc(O)cc2O)oc2c3c(cc(O)c2c1=O)OC(C)(C)C=C3 [Compound 24, morusinol] | 23.1 ± 2.8% | 71.2 ± 1.9% |  |  |  | 
13 | Oc1ccc([C@@H]2c3c(O)cc(O)cc3[C@@H]3c4c(O)cc(O)cc4[C@H]2[C@H]3c2ccc(O)cc2)cc1 [Compound 25, ampelopsin F] | 18.9 ± 2.2% | 37.5 ± 0.8% |  |  |  | 
14 | COc1cc(O)c(C(=O)/C=C/c2ccccc2)c(O)c1[C@H]1C[C@H](c2ccccc2)Oc2c(OC)c(O)cc(OC)c21 [Compound 26, sarcandrone B] | 1.2 ± 2.5% | 7.5 ± 2.5% |  |  |  | 
15 | COc1ccc(C(=O)N(CCN(Cc2ccccc2)C(=O)c2ccc(OC)cc2)Cc2ccccc2)cc1 [Compound 27] | 4.8 ± 4% | 28.2 ± 8.3% |  |  |  | 
16 | O=C(CCCN1C(=O)c2ccccc2N2C(=O)c3ccccc3C12)NCCc1cnc[nH]1 (centres unmarked) [Compound 28] | 14.1 ± 5.1% | 59.7 ± 1% |  |  |  | 
17 | Cn1c(=O)c2c(nc(SCC(=O)Nc3ccc4c(c3)OCO4)n2Cc2cccc(Cl)c2)n(C)c1=O [Compound 29] |  | 7.3 ± 10.2% |  |  |  | 

Row | Compound | inhibition at 20 µM (SARS-CoV-2 M^pro; [8]) | inhibition at 100 µM (SARS-CoV-2 M^pro; buffer with 5 mM DTT) | inhibition at 20 µM (SARS-CoV-2 PLpro [3]) | inhibition at 100 µM (SARS-CoV-2 PLpro [3]) | inhibition at 20 µM (SARS-CoV-2 PLpro [4]) | also measured
18 | COc1cc(CNC(=O)CCCC/C=C/C(C)C)ccc1O [Compound 31, trans-capsaicin] |  |  | 5.6 ± 9.7% | 5.3 ± 0.1% | 32.4 ± 13.7% | 
19 | CN1[C@@H](CC(=O)c2ccccc2)CCC[C@H]1C[C@H](O)c1ccccc1 [Compound 32, lobelin] |  |  | 3.7 ± 2.6% |  | 26.6 ± 11% | 
20 | COc1cc([C@@H]2Oc3c(O)cc([C@H]4Oc5cc(O)cc(O)c5C(=O)[C@@H]4O)cc3[C@H]2CO)ccc1O [Compound 33, silicristin] |  |  | 3.4 ± 7.8% | 19.8 ± 2% |  | 
21 | COc1cc(C2Oc3cc([C@H]4Oc5cc(O)cc(O)c5C(=O)[C@@H]4O)ccc3OC2CO)ccc1O (some centres unmarked) [Compound 34, silibinin] |  |  | 6.5 ± 3.6% |  | 50.3 ± 14.3% | CC50 (in vitro): > 100 µM; IC50 (SARS-CoV-2 [2]; [10]): > 100 µM
22 | C=CCc1ccc(O)c(-c2ccc(O)c(CC=C)c2)c1 [Compound 35, honokiol] |  |  | 4.9 ± 4.6% | 5.3 ± 3.2% | 80.6 ± 9.9% | CC50 [5]: 91.2 µM; CC50 [1]: > 20 µM; SARS-CoV-2 PLpro inhibition % enzyme inhibition (20 µM) (SARS-CoV-2 PLpro [4]): significant enzyme inhibition; IC50 (SARS-CoV-2 [6]): 16.2 µM; IC50 (SARS-CoV-2 [2]; [10]): 28.4 µM; antiviral activity against SARS-CoV-2 (in words) (SARS-CoV-2 [2]; two different cell lines (Caco-2, Calu-3)): moderately acting antiviral compounds
23 | CC(C)(O)[C@H](O)COc1c2ccoc2cc2oc(=O)ccc12 [Compound 37, oxypeucedanin hydrate] |  |  |  |  | 97.5 ± 14.6% | CC50 (in vitro): > 100 µM; SARS-CoV-2 PLpro inhibition % enzyme inhibition (20 µM) (SARS-CoV-2 PLpro [4]): significant enzyme inhibition; IC50 (SARS-CoV-2 [2]; [10]): > 100 µM
24 | Cn1cc(CNC(=O)c2cc([N+](=O)[O-])ccc2Cl)cn1 [Compound 38] |  |  | 3 ± 0.7% | 6.4 ± 4.6% | 26.1 ± 15.2% | 
25 | COCCN1C(=O)C(O)=C(C(=O)c2ccc(OC)c(C)c2)C1c1ccc(O)cc1 (centres unmarked) [Compound 39] |  |  | 10 ± 5.4% | 42 ± 1.3% | 26 ± 34.7% | 
26 | O=C(CC(c1ccccc1)c1ccccc1)NCCCc1ccccc1 [Compound 40] |  |  | 1.6 ± 8.8% | 5 ± 2.6% | 41.5 ± 16.5% | 
27 | COc1cc2c(cc1OC)/C(=C/C(=O)c1ccc(CSC)cc1)NCC2 [Compound 41] |  |  | 9.6 ± 5.8% | 14.6 ± 13.1% |  | 
28 | COc1ccc(C(=O)COc2ccc3c(c2)O/C(=C\c2cc(OC)ccc2OC)C3=O)cc1 [Compound 43] |  |  | 10 ± 5.4% | 14.3 ± 3.4% | 13.5 ± 25.5% | 
29 | COc1ccc(S(=O)(=O)NCc2ccc(C(=O)NCc3ccccc3)cc2)cc1 [Compound 44] |  |  | 6.4 ± 4.2% | 1.5 ± 1.2% | 18.5 ± 16.6% | 
30 | COc1ccc2c(C)c(CC(=O)Nc3c(C)cccc3C(C)C)c(=O)oc2c1OC [Compound 45] |  |  | 9 ± 4.3% | 2.6 ± 0.1% | -2.6 ± 36.1% | 
31 | COc1ccc(CNC(=O)c2ccc(Cn3c(=O)c(C)nc4ccccc43)cc2)cc1 [Compound 46] |  |  | 12.7 ± 6.9% | 14 ± 3.4% |  | 
32 | COc1cc(CC(CO)Oc2ccc(CCCO)cc2OC)ccc1O (centres unmarked) [Compound 47] |  |  | 8.8 ± 5.6% | 0.5 ± 0.8% | -55.8 ± 32.4% | 
33 | COc1ccc(CNC(=O)c2cn(CCC(C)C)c(=O)c3ccccc23)cc1OC [Compound 48] |  |  | 8.2 ± 2.3% | 0.3 ± 0.5% | 32 ± 4.2% | 
